In patent publication US20240246942A1, “KINASE INHIBITORS FOR THE TREATMENT OF NEURODEGENERATIVE DISEASES” (priority 2020, published 2024):

What was measured:
Experiment in all cases: biochemical
[1] = target: T1, panel of 374 wild-type kinases (Homo sapiens, UniProt Q9HC98); details: read-out: % Enzyme Activity (relative to DMSO controls), NEK6
T1 construct: purchased Reaction Biology Corporation

[2] = target: T2, panel of 374 wild-type kinases (Homo sapiens, UniProt Q9P0L2); details: read-out: % Enzyme Activity (relative to DMSO controls), MARK1
T2 construct: purchased Reaction Biology Corporation
T2 sequence (Q9P0L2 whole entry): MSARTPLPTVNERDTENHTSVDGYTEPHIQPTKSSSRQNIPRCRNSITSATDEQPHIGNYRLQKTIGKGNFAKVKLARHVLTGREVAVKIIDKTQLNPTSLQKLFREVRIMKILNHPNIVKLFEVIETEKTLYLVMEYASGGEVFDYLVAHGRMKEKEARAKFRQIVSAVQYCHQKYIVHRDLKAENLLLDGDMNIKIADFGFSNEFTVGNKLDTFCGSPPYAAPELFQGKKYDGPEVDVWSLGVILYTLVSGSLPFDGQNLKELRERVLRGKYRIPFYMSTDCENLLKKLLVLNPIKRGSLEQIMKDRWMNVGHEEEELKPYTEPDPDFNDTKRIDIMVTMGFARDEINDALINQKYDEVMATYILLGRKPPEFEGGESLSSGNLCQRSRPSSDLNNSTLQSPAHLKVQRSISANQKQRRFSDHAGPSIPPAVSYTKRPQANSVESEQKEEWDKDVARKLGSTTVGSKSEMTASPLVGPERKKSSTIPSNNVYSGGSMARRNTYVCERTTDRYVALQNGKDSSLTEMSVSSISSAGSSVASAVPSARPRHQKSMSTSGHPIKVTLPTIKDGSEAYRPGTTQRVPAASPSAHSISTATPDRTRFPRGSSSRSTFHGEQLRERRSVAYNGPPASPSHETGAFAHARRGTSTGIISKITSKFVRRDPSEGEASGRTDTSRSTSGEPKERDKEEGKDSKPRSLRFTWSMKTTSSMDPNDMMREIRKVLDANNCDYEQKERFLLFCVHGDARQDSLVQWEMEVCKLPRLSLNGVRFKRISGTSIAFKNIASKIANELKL

[3] = target: T3, panel of 374 wild-type kinases (Homo sapiens, UniProt Q15759); details: read-out: % Enzyme Activity (relative to DMSO controls), P38b/MAPK11
T3 construct: purchased Reaction Biology Corporation
T3 sequence (Q15759 whole entry): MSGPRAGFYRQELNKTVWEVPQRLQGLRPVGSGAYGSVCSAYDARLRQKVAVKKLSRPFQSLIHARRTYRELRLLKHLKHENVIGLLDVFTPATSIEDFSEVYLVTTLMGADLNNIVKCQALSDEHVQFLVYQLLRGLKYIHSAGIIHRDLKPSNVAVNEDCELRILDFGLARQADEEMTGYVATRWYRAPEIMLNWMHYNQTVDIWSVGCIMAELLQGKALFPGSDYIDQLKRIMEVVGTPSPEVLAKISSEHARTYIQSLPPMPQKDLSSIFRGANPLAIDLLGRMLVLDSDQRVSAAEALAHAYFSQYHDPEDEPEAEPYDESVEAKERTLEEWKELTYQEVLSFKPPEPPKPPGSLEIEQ

[4] = target: T4, panel of 374 wild-type kinases (Homo sapiens, UniProt P54753); details: read-out: % Enzyme Activity (relative to DMSO controls), EPHB3
T4 construct: purchased Reaction Biology Corporation
T4 sequence (P54753 34-998): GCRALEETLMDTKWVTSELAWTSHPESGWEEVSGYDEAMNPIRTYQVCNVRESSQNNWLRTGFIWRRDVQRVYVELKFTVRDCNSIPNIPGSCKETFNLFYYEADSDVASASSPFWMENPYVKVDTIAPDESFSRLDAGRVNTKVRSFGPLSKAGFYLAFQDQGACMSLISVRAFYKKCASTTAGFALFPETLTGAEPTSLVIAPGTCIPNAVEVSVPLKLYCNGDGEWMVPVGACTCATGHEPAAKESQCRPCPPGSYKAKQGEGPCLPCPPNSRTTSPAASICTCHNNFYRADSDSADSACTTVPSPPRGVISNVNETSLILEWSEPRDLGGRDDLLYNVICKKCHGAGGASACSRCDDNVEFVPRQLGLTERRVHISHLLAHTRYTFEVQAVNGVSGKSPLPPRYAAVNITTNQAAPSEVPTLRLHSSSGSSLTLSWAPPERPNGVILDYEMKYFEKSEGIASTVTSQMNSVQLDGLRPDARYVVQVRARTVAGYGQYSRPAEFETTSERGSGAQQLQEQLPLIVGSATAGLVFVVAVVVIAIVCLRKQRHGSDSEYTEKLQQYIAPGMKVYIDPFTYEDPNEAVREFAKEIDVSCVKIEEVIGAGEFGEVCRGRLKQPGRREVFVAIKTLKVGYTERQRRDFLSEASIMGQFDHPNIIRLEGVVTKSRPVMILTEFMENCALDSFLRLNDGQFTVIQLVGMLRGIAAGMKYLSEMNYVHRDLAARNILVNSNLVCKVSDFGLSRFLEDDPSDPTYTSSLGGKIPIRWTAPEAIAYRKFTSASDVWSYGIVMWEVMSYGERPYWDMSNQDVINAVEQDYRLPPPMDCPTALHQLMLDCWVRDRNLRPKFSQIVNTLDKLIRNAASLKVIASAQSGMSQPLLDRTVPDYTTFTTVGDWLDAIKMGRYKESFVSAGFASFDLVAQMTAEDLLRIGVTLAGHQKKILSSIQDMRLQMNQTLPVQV

[5] = target: T5, panel of 374 wild-type kinases (Homo sapiens, UniProt O15146); details: read-out: % Enzyme Activity (relative to DMSO controls), MUSK
T5 construct: purchased Reaction Biology Corporation
T5 sequence (O15146 24-869): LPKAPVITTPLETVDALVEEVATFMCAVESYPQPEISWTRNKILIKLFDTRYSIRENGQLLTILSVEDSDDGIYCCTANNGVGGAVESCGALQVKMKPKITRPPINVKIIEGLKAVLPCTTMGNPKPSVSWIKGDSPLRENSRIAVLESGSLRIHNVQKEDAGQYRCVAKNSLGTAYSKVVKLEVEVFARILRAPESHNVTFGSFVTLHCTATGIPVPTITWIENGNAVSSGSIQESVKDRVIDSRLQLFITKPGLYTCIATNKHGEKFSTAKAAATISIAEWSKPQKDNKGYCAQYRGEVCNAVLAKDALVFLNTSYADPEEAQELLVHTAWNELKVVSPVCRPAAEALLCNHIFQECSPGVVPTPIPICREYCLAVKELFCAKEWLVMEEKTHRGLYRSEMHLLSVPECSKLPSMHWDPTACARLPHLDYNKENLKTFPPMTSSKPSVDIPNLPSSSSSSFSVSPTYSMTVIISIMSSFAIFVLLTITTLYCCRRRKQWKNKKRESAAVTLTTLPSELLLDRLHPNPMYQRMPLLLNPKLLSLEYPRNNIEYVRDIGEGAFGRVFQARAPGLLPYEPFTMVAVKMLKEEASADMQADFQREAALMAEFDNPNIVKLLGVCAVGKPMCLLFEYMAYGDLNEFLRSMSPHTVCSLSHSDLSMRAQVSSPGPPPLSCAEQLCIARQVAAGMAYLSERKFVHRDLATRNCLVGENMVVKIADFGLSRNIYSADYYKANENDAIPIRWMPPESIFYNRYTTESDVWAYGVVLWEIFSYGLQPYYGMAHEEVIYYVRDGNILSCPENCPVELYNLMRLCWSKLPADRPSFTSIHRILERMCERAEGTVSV

[6] = target: T6, panel of 374 wild-type kinases (Homo sapiens, UniProt Q00536); details: read-out: % Enzyme Activity (relative to DMSO controls), CDK16/cyclin Y (PCTAIRE)
T6 construct: purchased Reaction Biology Corporation

[7] = target: T7, panel of 374 wild-type kinases (Homo sapiens, UniProt Q15208); details: read-out: % Enzyme Activity (relative to DMSO controls), kinase STK38/NDR1
T7 construct: purchased Reaction Biology Corporation
T7 sequence (Q15208 whole entry): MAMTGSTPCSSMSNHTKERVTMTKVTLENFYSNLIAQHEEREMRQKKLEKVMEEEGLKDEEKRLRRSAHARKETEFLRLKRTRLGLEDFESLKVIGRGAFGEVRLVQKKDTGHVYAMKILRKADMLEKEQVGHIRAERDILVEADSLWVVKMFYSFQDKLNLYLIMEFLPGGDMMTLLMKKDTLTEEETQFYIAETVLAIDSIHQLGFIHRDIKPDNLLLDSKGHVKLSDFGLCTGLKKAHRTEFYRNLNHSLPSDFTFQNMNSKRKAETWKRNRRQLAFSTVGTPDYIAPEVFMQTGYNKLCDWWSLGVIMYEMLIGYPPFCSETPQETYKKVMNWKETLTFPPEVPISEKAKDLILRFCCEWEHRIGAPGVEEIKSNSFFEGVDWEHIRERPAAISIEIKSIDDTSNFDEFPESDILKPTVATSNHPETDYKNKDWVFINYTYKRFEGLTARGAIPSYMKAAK

[8] = target: T8, panel of 374 wild-type kinases (Homo sapiens, UniProt P31751); details: read-out: % Enzyme Activity (relative to DMSO controls), AKT2
T8 construct: purchased Reaction Biology Corporation
T8 sequence (P31751 whole entry): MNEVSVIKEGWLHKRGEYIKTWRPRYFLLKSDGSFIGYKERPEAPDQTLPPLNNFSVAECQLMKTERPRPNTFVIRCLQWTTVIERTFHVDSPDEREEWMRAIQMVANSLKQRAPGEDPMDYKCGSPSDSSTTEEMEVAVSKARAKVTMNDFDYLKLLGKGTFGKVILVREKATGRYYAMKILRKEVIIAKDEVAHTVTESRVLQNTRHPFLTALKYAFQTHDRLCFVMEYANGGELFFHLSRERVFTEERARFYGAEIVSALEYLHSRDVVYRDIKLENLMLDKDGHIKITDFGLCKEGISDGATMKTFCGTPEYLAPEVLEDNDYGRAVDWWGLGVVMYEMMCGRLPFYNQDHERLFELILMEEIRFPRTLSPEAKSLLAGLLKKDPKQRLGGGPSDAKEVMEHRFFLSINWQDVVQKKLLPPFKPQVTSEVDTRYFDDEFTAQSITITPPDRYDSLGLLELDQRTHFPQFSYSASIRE

[9] = target: T9, panel of 374 wild-type kinases (Homo sapiens, UniProt Q6IQ55); details: read-out: % Enzyme Activity (relative to DMSO controls), kinase TTBK2
T9 construct: purchased Reaction Biology Corporation
T9 sequence (Q6IQ55 whole entry): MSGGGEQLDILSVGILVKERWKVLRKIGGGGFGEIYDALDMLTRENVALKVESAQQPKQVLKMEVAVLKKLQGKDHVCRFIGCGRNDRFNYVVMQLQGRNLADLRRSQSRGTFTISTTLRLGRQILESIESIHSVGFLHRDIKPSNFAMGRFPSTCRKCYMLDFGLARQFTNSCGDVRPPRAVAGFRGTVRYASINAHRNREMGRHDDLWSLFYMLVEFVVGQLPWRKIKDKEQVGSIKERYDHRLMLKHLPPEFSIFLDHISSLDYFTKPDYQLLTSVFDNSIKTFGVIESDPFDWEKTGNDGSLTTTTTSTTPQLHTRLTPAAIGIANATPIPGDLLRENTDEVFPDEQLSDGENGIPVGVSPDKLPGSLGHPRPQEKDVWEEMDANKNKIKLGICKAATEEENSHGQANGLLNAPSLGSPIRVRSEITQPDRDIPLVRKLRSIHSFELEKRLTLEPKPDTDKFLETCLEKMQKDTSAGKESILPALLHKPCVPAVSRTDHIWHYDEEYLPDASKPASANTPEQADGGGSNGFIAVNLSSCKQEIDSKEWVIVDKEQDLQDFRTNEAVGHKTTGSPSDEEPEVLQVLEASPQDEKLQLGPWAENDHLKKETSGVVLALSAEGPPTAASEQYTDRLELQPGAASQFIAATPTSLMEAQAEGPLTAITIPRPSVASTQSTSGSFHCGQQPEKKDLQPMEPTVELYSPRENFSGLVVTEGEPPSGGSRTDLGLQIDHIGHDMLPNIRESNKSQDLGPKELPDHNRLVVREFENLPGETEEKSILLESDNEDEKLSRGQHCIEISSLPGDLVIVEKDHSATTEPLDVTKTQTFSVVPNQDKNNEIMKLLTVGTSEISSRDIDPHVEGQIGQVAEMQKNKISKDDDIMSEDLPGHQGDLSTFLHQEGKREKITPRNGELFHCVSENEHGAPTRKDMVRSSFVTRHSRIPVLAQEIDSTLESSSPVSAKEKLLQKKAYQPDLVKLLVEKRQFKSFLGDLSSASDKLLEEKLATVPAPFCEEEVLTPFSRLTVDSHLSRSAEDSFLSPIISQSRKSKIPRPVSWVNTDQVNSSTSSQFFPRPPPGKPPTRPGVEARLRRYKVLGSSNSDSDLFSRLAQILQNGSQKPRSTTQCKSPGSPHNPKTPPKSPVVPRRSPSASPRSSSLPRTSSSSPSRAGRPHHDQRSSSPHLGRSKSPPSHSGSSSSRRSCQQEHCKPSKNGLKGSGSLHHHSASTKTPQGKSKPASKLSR

[10] = target: T10, panel of 374 wild-type kinases (Homo sapiens, UniProt P04629); details: read-out: % Enzyme Activity (relative to DMSO controls), kinase TRKA
T10 construct: purchased Reaction Biology Corporation
T10 sequence (P04629 33-796): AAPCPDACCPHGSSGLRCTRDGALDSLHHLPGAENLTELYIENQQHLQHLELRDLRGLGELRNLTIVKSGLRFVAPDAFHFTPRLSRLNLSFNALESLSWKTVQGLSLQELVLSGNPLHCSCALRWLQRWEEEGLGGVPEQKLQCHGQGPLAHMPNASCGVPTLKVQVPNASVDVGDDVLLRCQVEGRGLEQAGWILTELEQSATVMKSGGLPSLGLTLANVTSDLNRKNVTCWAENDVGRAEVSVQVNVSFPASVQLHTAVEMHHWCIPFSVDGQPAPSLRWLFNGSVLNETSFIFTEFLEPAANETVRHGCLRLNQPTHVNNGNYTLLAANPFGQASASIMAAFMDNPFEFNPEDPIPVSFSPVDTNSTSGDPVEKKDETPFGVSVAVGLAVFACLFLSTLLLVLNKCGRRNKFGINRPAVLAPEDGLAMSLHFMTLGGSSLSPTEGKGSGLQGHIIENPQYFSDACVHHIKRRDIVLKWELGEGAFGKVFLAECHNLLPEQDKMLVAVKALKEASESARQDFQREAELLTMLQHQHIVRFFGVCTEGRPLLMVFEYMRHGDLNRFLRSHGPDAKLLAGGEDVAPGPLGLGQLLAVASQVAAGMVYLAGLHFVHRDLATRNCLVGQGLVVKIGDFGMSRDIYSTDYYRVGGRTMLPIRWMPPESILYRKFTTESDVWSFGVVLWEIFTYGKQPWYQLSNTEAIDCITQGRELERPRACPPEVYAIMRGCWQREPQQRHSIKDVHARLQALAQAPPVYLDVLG

[11] = target: T11, panel of 374 wild-type kinases (Homo sapiens, UniProt P27361); details: read-out: % Enzyme Activity (relative to DMSO controls), ERK1
T11 construct: purchased Reaction Biology Corporation
T11 sequence (P27361 whole entry): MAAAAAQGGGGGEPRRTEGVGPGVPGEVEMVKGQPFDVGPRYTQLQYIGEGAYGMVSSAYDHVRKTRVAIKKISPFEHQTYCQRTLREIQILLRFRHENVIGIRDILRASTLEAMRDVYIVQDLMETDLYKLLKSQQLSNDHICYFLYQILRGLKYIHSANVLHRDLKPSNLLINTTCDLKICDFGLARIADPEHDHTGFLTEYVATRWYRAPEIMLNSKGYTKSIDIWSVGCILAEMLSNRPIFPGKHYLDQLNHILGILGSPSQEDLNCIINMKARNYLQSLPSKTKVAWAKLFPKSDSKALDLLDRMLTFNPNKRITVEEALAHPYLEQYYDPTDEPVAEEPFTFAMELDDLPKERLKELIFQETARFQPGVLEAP

[12] = target: T12, panel of 374 wild-type kinases (Homo sapiens, UniProt Q5S007); details: read-out: % Enzyme Activity (relative to DMSO controls), LRRK2
T12 construct: purchased Reaction Biology Corporation

T1 sequence (Q9HC98 whole entry): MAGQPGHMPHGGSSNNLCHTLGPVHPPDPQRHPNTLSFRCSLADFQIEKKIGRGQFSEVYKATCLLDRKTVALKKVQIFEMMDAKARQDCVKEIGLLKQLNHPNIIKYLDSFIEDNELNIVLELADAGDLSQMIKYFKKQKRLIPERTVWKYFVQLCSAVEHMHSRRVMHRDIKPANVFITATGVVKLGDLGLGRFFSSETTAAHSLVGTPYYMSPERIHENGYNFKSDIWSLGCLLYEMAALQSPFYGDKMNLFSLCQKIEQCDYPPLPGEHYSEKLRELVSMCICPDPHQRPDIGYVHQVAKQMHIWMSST

Row | Structure (SMILES) | remaining activity at 5 µM [1] [%] | remaining activity at 5 µM [2] [%] | remaining activity at 5 µM [3] [%] | remaining activity at 5 µM [4] [%] | remaining activity at 5 µM [5] [%] | remaining activity at 5 µM [6] [%] | remaining activity at 5 µM [7] [%] | remaining activity at 5 µM [8] [%] | remaining activity at 5 µM [9] [%] | remaining activity at 5 µM [10] [%] | remaining activity at 5 µM [11] [%] | remaining activity at 5 µM [12] [%] | further results
1 | O=C(Nc1cnn(-c2csc(C(=O)NC3COC3)c2)c1)Nc1ccccc1Cl [Compound 17, 4-(4-(3-(2-chlorophenyl)ureido)-1H-pyrazol-1-yl)-N-(oxetan-3-yl)thiophene-2-carboxamide] | 103 | 96.3 | 101 | 95.6 | 94.5 | 94.8 | 99.2 | 89.5 | 107 | 100 | 92.8 | 88.2 | 
2 | Cc1sc(C(=O)NC2COC2)cc1-n1cc(NC(=O)Nc2c(F)cccc2Cl)cn1 [Compound 27, 4-(4-(3-(2-chloro-6-fluorophenyl)ureido)-1H-pyrazol-1-yl)-5-methyl-N-(oxetan-3-yl)thiophene-2-carboxamide] |  |  |  |  |  |  |  |  |  |  |  |  | remaining activity at 10 µM ([1]; 10 uM): 93.3%; remaining activity at 10 µM ([2]; 10 uM): 95.3%; remaining activity at 10 µM ([3]; 10 uM): 94.3%; remaining activity at 10 µM ([4]; 10 uM): 97.2%; remaining activity at 10 µM ([5]; 10 uM): 103%; remaining activity at 10 µM ([6]; 10 uM): 102%; remaining activity at 10 µM ([7]; 10 uM): 91.5%; remaining activity at 10 µM ([8]; 10 uM): 89.8%; remaining activity at 10 µM ([9]; 10 uM): 97.6%; remaining activity at 10 µM ([10]; 10 uM): 81%; remaining activity at 10 µM ([11]; 10 uM): 107%; remaining activity at 10 µM ([12]; 10 uM): 101%
3 | O=C(Nc1cnn(-c2csc(C(=O)NC3COC3)c2)c1)Nc1c(F)cccc1Cl [Compound 25, 4-(4-(3-(2-chloro-6-fluorophenyl)ureido)-1H-pyrazol-1-yl)-N-(oxetan-3-yl)thiophene-2-carboxamide] | 87.2 | 108 | 91.7 | 96.5 | 86.8 | 101 | 95.5 | 104 | 104 | 87.8 | 92.4 | 91.3 | 
